Series [1] has as its system HCT-15 (colorectal adenocarcinoma). Briefly: cells. Format: cell-based, human. To be noted: for IC50: Homo sapiens, HCT-15, 24 h, MTT. As to the method:
(§1) Breast adenocarcinoma cells (MCF-7; DSMZ: ACC 115), colon adenocarcinoma cells (HTC-15; DSMZ: CCL-225), and prostate cells (DU-145; ATCC: HRB-81) were cultured in RPMI 1640 medium.
(§2) Cells were seeded at an appropriate density to promote optimal growth, and the culture medium was replaced every 48 h. Once cells reached 80–90% confluence, subculture was performed using 0.25% trypsin-EDTA to dissociate the cells, by 2 min and put inside of chamber during 5 min, according to the protocol provided by the biobanks. The cell lines were maintained at 37 °C in a humidified incubator with 5% CO2 and 95% humidity.
(§3) Cells were seeded in 96-well plates (HepG-2: 2.5 ×10^4 cells; HCT-15: 2.5 × 10^4 cells/mL; MCF-7: 2.5 × 10^4 cells/mL; SH-SY5Y: 5.0 × 10^4 cells/mL; FL83B: 5.0 × 10^4 cell/mL; DU-145: 5.0 × 10^4 cell/mL). Cancer cell lines were exposed to compounds (100 μM) for 24 h and vehicle/controls were included to assess potential solvent interference. Cell viability was assessed using MTT assay. Then, the culture medium was removed and 100 μL of MTT (0.5 mg/mL) was added to each cell. Cells were incubated for 1 h in the dark under the same culture condition (37 °C, 5% CO2, 95% humidity). After incubation, the intracellular formazan crystals were solubilized with 100 μL DMSO and, after […], the absorbance was measured at 570 nm using a microplate reader (Synergy H1). […] Results were expressed as a percentage of control untreated cells and the half-maximal inhibitory concentration (IC50) values were determined using nonlinear regression analysis (GraphPad Prism, 8.1, GraphPad Software, San Diego, CA, USA).

Series [2] concerns FL83B hepatocytes. In words: Cytotoxicity (in vitro hepatotoxicity) MTT assay, FL83B. It counts as cell-based. Particulars: 24 h, normal murine hepatocytes. On the procedure: (§4) Hepatocyte cells (FL83B; ATCC: CLR-2390) were cultured in F-12K medium. Human neuroblastoma (SH-SY5Y; ATCC: CRL-2266) cells were cultivated in DMEM/F12 medium. All media were supplemented with fetal bovine serum (10%) (Biowest, Riverside, MO, USA) and 1% antibiotic/antimycotic solution (Biowest, Nuaill’e, France).
as §2, §3

Series [3] deals with DU-145 (prostate adenocarcinoma). Briefly: Cytotoxicity MTT assay, DU-145. Format: cell-based, human. Particulars: for IC50: 24 h, MTT. On the procedure:
as §1, §2, §3
On the technique in general: Tetrazolium assays rely on reduction of a dye to a coloured formazan, in cell work by metabolically active cells.

The subject of series [4] is SH-SY5Y neuroblastoma cell line. Briefly: Cytotoxicity MTT assay, SH-SY5Y. It counts as cell-based, human. To be noted: 24 h. As to the method:
as §4, §2, §3

Series [5] relates to MCF-7 (breast adenocarcinoma). In words: cells. It counts as cell-based. To be noted: for IC50: Homo sapiens, MCF7, 24 h, MTT. On the procedure:
as §1, §2, §3

The subject of series [6] is differentiated SH-SY5Y neuroblastoma cells. Briefly: Neuroprotective capacity on a Parkinson's disease cellular model (6-OHDA, MTT). Particulars: 6-OHDA 100 μM, 24 h.
Method: Only at these non-toxic concentrations (0.01–10 µM; 24 h) were the compounds subsequently tested for their neuroprotective potential in an in vitro PD damage model using differentiated SH-SY5Y neuroblastoma cells. The cells, previously differentiated to obtain a dopaminergic neuronal phenotype [52], were treated with compounds in the presence of the neurotoxin 6-OHDA (100 µM). The cells’ viability was estimated using the 3-(4,5-dimethylthiazol-2-yl)−2,5-diphenyltetrazolium bromide (MTT) assay.
Cells were differentiated to obtain dopaminergic neuronal phenotype according to [52], with slight modifications. […] At the end of the 8th day, the cytotoxicity assay was performed.
Cell viability on SH-SY5Y cells was evaluated after exposure to the compounds at 10 μM for 24 h. […] The cell viability and neuroprotective effects were assessed by a colorimetric assay based on the reduction of tetrazolium salts MTT (VWR, Solon, OH, USA) to blue formazan products, according to [61]. Saponin (Sigma-Aldrich, Steinheim, Germany) was used as a positive control for inducing cellular death. The results were expressed as a percentage of the control (untreated cells).
For series [7], the target named is T1, Acetylcholinesterase (from Electrophorus electricus) (Electrophorus electricus, UniProt O42275).
T1 construct: purchased Sigma
T1 sequence (O42275 24-633): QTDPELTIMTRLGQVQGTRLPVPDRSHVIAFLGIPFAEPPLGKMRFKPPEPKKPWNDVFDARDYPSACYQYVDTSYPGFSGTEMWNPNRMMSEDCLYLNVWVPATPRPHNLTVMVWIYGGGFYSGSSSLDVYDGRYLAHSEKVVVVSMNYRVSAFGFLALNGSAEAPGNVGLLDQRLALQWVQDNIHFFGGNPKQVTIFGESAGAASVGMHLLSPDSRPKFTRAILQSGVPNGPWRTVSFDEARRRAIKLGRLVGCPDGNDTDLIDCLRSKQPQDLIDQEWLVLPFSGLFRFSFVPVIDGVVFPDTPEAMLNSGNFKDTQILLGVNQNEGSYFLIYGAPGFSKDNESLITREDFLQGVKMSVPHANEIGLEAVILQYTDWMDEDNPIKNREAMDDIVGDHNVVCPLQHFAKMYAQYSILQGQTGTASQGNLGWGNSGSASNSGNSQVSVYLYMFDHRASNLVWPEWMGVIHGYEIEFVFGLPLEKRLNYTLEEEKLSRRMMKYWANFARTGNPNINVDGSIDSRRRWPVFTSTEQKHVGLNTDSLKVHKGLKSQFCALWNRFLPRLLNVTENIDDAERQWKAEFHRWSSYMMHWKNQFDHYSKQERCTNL
Briefly: biochemical. To be noted: read-out: AChE Inhibition (%). On the procedure: (§5) The inhibitory effects of the compounds on AChE and BChE were assessed by Elman’s method.
(§6) Acetylcholinesterase (from Electrophorus electricus), Butyrylcholinesterase (from equine serum), 5,5′-dithiobis-(2-nitrobenzoic acid) (DTNB), and acetylthiocholine iodide were purchased from Sigma.
Preparation of 50 mM Tris-HCl buffer solutions: Tris(hydroxymethyl)-aminomethane (606 mg) was dissolved in bidestilled water (100 mL) and adjusted with HCl to a pH of 8.0 ± 0.1. Buffers were freshly prepared and stored in the refrigerator. AChE solution 2.005 U/mL: The enzyme (271 U/mg, 0.037 mg) was dissolved in freshly prepared buffer pH 8.0 (5 mL) containing NaN3 (0.98 mg). BChE solution 2.040 U/mL: The enzyme (7.54 U/mg, 1.353 mg) was dissolved in freshly prepared buffer pH 8.0 (5 mL) containing NaN3 (0.98 mg). DTNB solution 3 mM: DTNB (23.8 mg) was dissolved in freshly prepared buffer pH 8.0 (20 mL) containing NaCl (116.8 mg) and MgCl2 (38.0 mg). […]
BMG Labtech Spectrostar Omega plate reader working in the slow kinetics mode and measuring the absorbance at a distinct wavelength of λ = 412 nm with center scanning mode was used for the enzymatic studies. […] The absorbance data were recorded under a controlled temperature of 30 °C for 30 min at 1 min intervals at l = 412 nm. The relative inhibition was determined as the quotient of the slopes (compound divided by blank) of the linear ranges (10 repetitions). […]

The target of series [8] is T2, Butyrylcholinesterase (from equine serum) (Equus caballus, UniProt P81908).
T2 construct: Butyrylcholinesterase (from equine serum); purchased Sigma; host or cells: equine serum
T2 sequence (P81908 whole entry): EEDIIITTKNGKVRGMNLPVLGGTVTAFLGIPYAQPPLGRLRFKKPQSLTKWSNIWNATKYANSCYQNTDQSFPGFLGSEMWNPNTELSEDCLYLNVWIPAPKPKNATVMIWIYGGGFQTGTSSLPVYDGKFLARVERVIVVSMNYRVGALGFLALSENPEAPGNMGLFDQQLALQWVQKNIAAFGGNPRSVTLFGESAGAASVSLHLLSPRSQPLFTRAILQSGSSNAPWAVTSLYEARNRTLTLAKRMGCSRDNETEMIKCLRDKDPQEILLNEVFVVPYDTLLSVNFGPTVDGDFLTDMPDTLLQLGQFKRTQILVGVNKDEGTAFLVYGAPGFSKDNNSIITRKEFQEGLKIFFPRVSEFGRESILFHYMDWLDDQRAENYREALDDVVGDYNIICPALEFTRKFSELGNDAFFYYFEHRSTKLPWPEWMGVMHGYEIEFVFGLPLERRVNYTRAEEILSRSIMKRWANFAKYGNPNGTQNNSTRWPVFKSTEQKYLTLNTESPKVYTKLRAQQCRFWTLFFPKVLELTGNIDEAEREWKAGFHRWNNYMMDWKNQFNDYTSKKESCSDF
In words: biochemical. It counts as biochemical. To be noted: for Ki: read-out: BChE Ki; for inhibition at 50 µM: read-out: BChE Inhibition (%). As to the method:
as §5, §6
Preparation of 50 mM Tris-HCl buffer solutions: Tris(hydroxymethyl)-aminomethane (606 mg) was dissolved in bidestilled water (100 mL) and adjusted with HCl to a pH of 8.0 ± 0.1. Buffers were freshly prepared and stored in the refrigerator. AChE solution 2.005 U/mL: The enzyme (271 U/mg, 0.037 mg) was dissolved in freshly prepared buffer pH 8.0 (5 mL) containing NaN3 (0.98 mg). BChE solution 2.040 U/mL: The enzyme (7.54 U/mg, 1.353 mg) was dissolved in freshly prepared buffer pH 8.0 (5 mL) containing NaN3 (0.98 mg). DTNB solution 3 mM: DTNB (23.8 mg) was dissolved in freshly prepared buffer pH 8.0 (20 mL) containing NaCl (116.8 mg) and MgCl2 (38.0 mg). ATChI solution 15 mM: ATChI (43.4 mg) was dissolved in bidestilled water (10 mL). All solutions were stored in Eppendorf caps in the refrigerator or in the freezer, if necessary. […] The final concentrations for the enzymatic assay were obtained by diluting the stock solution with bidistilled water.
BMG Labtech Spectrostar Omega plate reader working in the slow kinetics mode and measuring the absorbance at a distinct wavelength of λ = 412 nm with center scanning mode was used for the enzymatic studies. In short, a mixture of a DTNB solution (125 µL, 3 mM in 50 mM Tris-HCl buffer, pH 8), enzyme solution (25 µL, 2 U/mL), and compounds solutions (25 µL, 3 different concentrations and water as a blank) was incubated at 30 °C for 20 min. The substrate (25 µL, [ATChI] = 0.9375 mM, 0.625 mM, […], 0.1875 mM) was added to start the enzymatic reaction. The absorbance data were recorded under a controlled temperature of 30 °C for 30 min at 1 min intervals at l = 412 nm. The relative inhibition was determined as the quotient of the slopes (compound divided by blank) of the linear ranges (10 repetitions). Galantamin was used as control substance. To determine the kinetic constants, standard linearization methods were used after applying an internal standard (Dixon/Cornish–Bowden plots) (triplicates).

Read-outs that look alike come from different tables or passages of the source. Some results are limits rather than exact numbers.

In the case of `O=c1[nH]cc(F)c(=O)[nH]1` [5-Fluorouracil, reference compound], the IC50 – broadly, the concentration that gives 50% inhibition – was 156 µM in series [1] and over 100 µM in series [2] (Mus musculus, FL83B).
Turning to `N.N.[Cl][Pt][Cl]` [Cisplatin, reference compound], the IC50 is over 100 µM in series [3], 13.9 µM in series [4] and 25.7 µM in series [2].
Consider `CC(=O)O[C@@H]1CN(C(C)=O)C(=O)[C@H](OC(C)=O)[C@H]1OCc1ccccc1` [Compound 3, N-acetyl 2,4-di-O-acetyl-3-O-benzyl-D-xylono-1,5-lactam], for which the concentration for half-maximal inhibition (IC50) was over 100 µM in series [1]; over 100 µM in series [5]; over 100 µM in series [3] (Homo sapiens, DU-145); over 100 µM in series [4] (Homo sapiens, SH-SY5Y).
As to `NCCc1cc(O)c(O)cc1O` [Compound 6-OHDA, 6-hydroxydopamine], the “reduction of differentiated SH-SY5Y cells' viability” value in series [6] is reported as 40%. In addition, the “viable cells, 6-OHDA alone” value in series [6] (MTT, % of control) was 61.3 ± 1.4 % of viable cells.
As for `CC(=O)O[C@@H]1[C@@H](OCc2ccccc2)[C@@H](CN=[N+]=[N-])O[C@H]1n1cnc2c(Cl)ncnc21` [Compound 7, 9-(2-O-Acetyl-5-azido-3-O-benzyl-5-deoxy-β-D-xylofuranosyl)-6-chloropurine], the IC50 is 72.7 µM in series [1]; over 100 µM in series [5]; over 100 µM in series [3] (Homo sapiens, DU-145); over 100 µM in series [4] (Homo sapiens, SH-SY5Y); 22.7 µM in series [2] (Mus musculus, FL83B).
In the case of `CC(=O)O[C@@H]1[C@@H](OCc2ccccc2)[C@@H](CN=[N+]=[N-])O[C@H]1n1cnc2ncnc(Cl)c21` [Compound 8, 7-(2-O-acetyl-5-azido-3-O-benzyl-5-deoxy-β-D-xylofuranosyl)-6-chloropurine], the IC50 in series [1] was over 100 µM; in series [5], over 100 µM; in series [3] (Homo sapiens, DU-145), over 100 µM; in series [4] (Homo sapiens, SH-SY5Y), over 100 µM.
Turning to `CC(=O)O[C@@H]1[C@@H](OCc2ccccc2)[C@@H](CN=[N+]=[N-])O[C@H]1n1ccc(=O)[nH]c1=O` [Compound 9, 1-(2-O-Acetyl-5-azido-3-O-benzyl-5-deoxy-β-D-xylofuranosyl)uracil], the IC50 in series [1] was over 100 µM; in series [5] it was over 100 µM; in series [3] (Homo sapiens, DU-145) it was over 100 µM; in series [4] (Homo sapiens, SH-SY5Y) it was over 100 µM.
Turning to `CC(=O)OC1C(OCc2ccccc2)C(CNC(=NC(=O)OC(C)(C)C)NC(=O)OC(C)(C)C)OC1n1cnc2c(Cl)ncnc21` [Compound 10, 9-{2-O-acetyl-3-O-benzyl-5-deoxy-5-[N′,N′′-bis(tert-butoxycarbonyl)]guanidino-β-D-xylofuranosyl}-6-chloropurine], the inhibition (as a rule, the drop in the measured response relative to a control, in per cent) at 50 µM in series [7] came out at 39.1 ± 0.9%; in series [8] it was 83.8 ± 1.3%. In addition, in series [8], the “BChE inhibitory activity, fold higher than that of galantamine” value is given as “ca. 10 fold”. Also, the “BChE type of inhibition” value in series [8] is recorded as “mixed-type”. In addition, the Ki – broadly, the dissociation constant of the complex between target and ligand, obtained from inhibition or displacement – in series [8] (competitive component) worked out at 0.89 ± 0.08 µM; in series [8] (uncompetitive component, listed as N^9 regioisomer), 2.96 µM. Moreover, in series [8] (uncompetitive component), the “BChE Ki′” value was determined as 2.96 ± 0.39 µM. Further, the IC50 in series [1] was over 100 µM; in series [5] it was over 100 µM; in series [3] (Homo sapiens, DU-145), 27.6 µM; in series [4] (Homo sapiens, SH-SY5Y), over 100 µM; in series [2] (Mus musculus, FL83B), 73.7 µM.
Consider `CC(=O)OC1C(OCc2ccccc2)C(CNC(=NC(=O)OC(C)(C)C)NC(=O)OC(C)(C)C)OC1n1cnc2ncnc(Cl)c21` [Compound 11, 7-(2-O-acetyl-3-O-benzyl-5-deoxy-5-[N′,N′′-bis(tert-butoxycarbonyl)]guanidino-β-D-xylofuranosyl)-6-chloropurine], for which the inhibition at 50 µM was 34.6 ± 1.4% in series [7] and 65.2 ± 0.9% in series [8]. Also, in series [8], the “BChE Ki, fold higher than that of the N^9-counterpart” value is “ca. 2 fold”. Moreover, in series [8], the “BChE inhibitory activity, fold higher than that of galantamine” value is about 4 fold. Further, in series [8], the “BChE type of inhibition” value is listed as “mixed-type”. Moreover, in series [8] (competitive component), the Ki worked out at 2.34 ± 0.2 µM. Further, in series [8] (uncompetitive component), the “BChE Ki′” value came to 10.6 ± 1.4 µM. In addition, the IC50 in series [1] is 64.1 µM; in series [5] it was 43.7 µM; in series [3] (Homo sapiens, DU-145) it was 24.5 µM; in series [4] (Homo sapiens, SH-SY5Y) it was 12.1 µM; in series [2] (Mus musculus, FL83B) it was 24.1 µM. Also, the “cytotoxicity in MCF-7 cells, fold lower than tamoxifen” value in series [5] amounted to 1.6 fold. Further, in series [3], the “effect against DU-145 cells, fold higher than cisplatin” value amounted to 4 fold.
`CC(=O)O[C@@H]1[C@@H](OCc2ccccc2)[C@@H](CNC(=NC(=O)OC(C)(C)C)NC(=O)OC(C)(C)C)O[C@H]1n1ccc(=O)[nH]c1=O` [Compound 12, 1-(2-O-Acetyl-3-O-benzyl-5-deoxy-5-[N′,N′′-bis(tert-butoxycarbonyl)]guanidino-β-d-xylofuranosyl)uracil]: the “cytotoxicity against HCT-15, fold higher (IC50 fold lower) than 5-fluorouracil” value in series [1] is “ca. 2 fold”. In addition, the concentration for half-maximal inhibition (IC50) in series [1] was 76 µM; in series [5] it was over 100 µM; in series [3] (Homo sapiens, DU-145) it was over 100 µM; in series [4] (Homo sapiens, SH-SY5Y), over 100 µM; in series [2] (Mus musculus, FL83B), over 100 µM.
Consider `COc1ccc2c3c1O[C@H]1C[C@@H](O)C=C[C@@]31CCN(C)C2` [Galantamine, reference compound], for which, in series [8], the “BChE type of inhibition” value is “competitive” and the inhibition at 50 µM was determined as 52 ± 0.5%.
